Data on five compounds can be found in patent US9770445B2, “Sulfoximine substituted 5-fluoro-N-(pyridin-2-yl)pyridin-2-amine derivatives and their use as CDK9 kinase inhibitors” (BAYER PHARMA AKTIENGESELLSCHAFT, priority 2013, dated 2017).

The structures appear in SMILES notation.

For this experiment, the system named is MOLM-13 human acute myeloid leukemia cells. The experiment in a line: Proliferation assay, MOLM-13 (Cell Titre-Glo). The experiment is classed as cell-based. The conditions noted are these: MOLM-13, 72-hour exposure, read-out: Inhibition of MOLM-13 cell proliferation. Here is the method:
Non-adherent MOLM-13 human acute myeloid leukemia cells (DSMZ ACC 554) were seeded at a density of 5,000 cells/well in a 96-well multititer plate in 100 μL of growth medium supplemented 10% fetal calf serum. After 24 hours, cell viability of one plate (zero-point plate) was determined with the Cell Titre-Glo Luminescent Cell Viability Assay (Promega), while 50 μL of test compound containing medium was added to the wells of the other plates (final concentrations in the range of 0.001-10 μM and DMSO controls; the final concentration of the solvent dimethyl sulfoxide was 0.5%). Cell viability was assessed after 72-hour exposure with the Cell Titre-Glo Luminescent Cell Viability Assay (Promega). IC50 values (inhibitory concentration at 50% of maximal effect) were determined by means of a 4 parameter fit on measurement data which were normalized to vehicle (DMSO) treated cells (=100%) and measurement readings taken immediately before compound exposure (=0%).
As for `CS(=N)(=O)Cc1cc(Nc2cc(-c3ccc(F)c4ccoc34)c(F)cn2)nc(C(F)(F)F)c1` (racemic) [Example 3, (rac)-5-Fluoro-4-(4-fluoro-1-benzofuran-7-yl)-N-{4-[(S-methylsulfonimidoyl)methyl]-6-(trifluoromethyl)pyridin-2-yl}pyridin-2-amine], the IC50 is 6 nM.
Regarding `CS(=N)(=O)Cc1ccnc(Nc2cc(-c3ccc(F)c4ccoc34)c(F)cn2)c1` (racemic) [Example 5, (rac)-5-Fluoro-4-(4-fluoro-1-benzofuran-7-yl)-N-{4-[(S-methylsulfonimidoyl)methyl]pyridin-2-yl}pyridin-2-amine], the IC50 was 18 nM.
Next, `CCc1cc(CS(C)(=N)=O)cc(Nc2cc(-c3ccc(F)c4ccoc34)c(F)cn2)n1` (racemic) [Example 8, (rac)-N-{6-Ethyl-4-[(S-methylsulfonimidoyl)methyl]pyridin-2-yl}-5-fluoro-4-(4-fluoro-1-benzofuran-7-yl)pyridin-2-amine]: 3.9 nM.
`Cc1cc(CS(C)(=N)=O)cc(Nc2cc(-c3ccc(F)c4ccoc34)c(F)cn2)n1` (racemic) [Example 7, (rac)-5-Fluoro-4-(4-fluoro-1-benzofuran-7-yl)-N-{6-methyl-4-[(S-methylsulfonimidoyl)-methyl]pyridin-2-yl}pyridin-2-amine]: the IC50 came to 6.3 nM.
Next, `CS(=N)(=O)Cc1cc(F)nc(Nc2cc(-c3ccc(F)c4ccoc34)c(F)cn2)c1` (racemic) [Example 1, (rac)-5-Fluoro-4-(4-fluoro-1-benzofuran-7-yl)-N-{6-fluoro-4-[(S-methylsulfonimidoyl)methyl]pyridin-2-yl}pyridin-2-amine]: 16 nM.
